Data as given in paper PMC10396955, “2-Oxabicyclo[2.1.1]hexanes as saturated bioisosteres of the ortho-substituted phenyl ring” (Nature Chemistry, 2023).
≈ marks a conversion by molar mass, not a printed value. Where two headings read alike, the source gives them in different places.

Columns and labels:
[1] = Kinetic solubility in phosphate-buffered saline, pH 7.4; format: physicochemical; settings: for solubility at 2 h: phosphate-buffered saline, 25 °C, pH 7.4, aqueous buffer, kinetic from dmso stock
Procedure: Analysis of Aqueous Solubility […]
compound (Ondansetron) were assessed for kinetic solubility in phosphate-buffered saline, pH […]
Phosphate buffered saline, pH 7.4 (Sigma-Aldrich, USA; Cat #P3813) […]
MultiScreen HTS 96 Well Filter Plates (Millipore, Ireland; Cat # MSGVS2210) […]
Matrix Multichannel Electronic Pipette 2-125 µL, 5-250 µL, 15-1250 µL (Thermo Scientific, […]
Vacuum pump (Millipore, USA; Model # XX5500000)
The measurements were performed using SpectraMax Plus reader in UV-Vis mode. Acquisition and analysis of the data were performed using SoftMax Pro v.5.4 (Molecular Devices) and Excel […]
Kinetic solubility assay was performed according to the Enamine’s aqueous solubility SOP.
Briefly, using a 20 mM stock solution of the compound in 100% DMSO dilutions were prepared to a theoretical concentration of 400 μM in duplicates in phosphate-buffered saline pH 7.4 […]
for two hours and then filtered through HTS filter plates using a vacuum manifold. The filtrates of test compounds were diluted 2-fold with acetonitrile with 2% DMSO before measuring.
In parallel, compound dilutions in acetonitrile/PBS (1:1) were prepared to theoretical […]
DMSO to generate calibration curves. Ondansetron was used as reference compound to control proper assay performance. 200 μl of each sample was transferred to 96-well plate and measured in 200-550 nm range with 5 nm step.
The concentrations of compounds in PBS filtrate are calculated using a dedicated Microsoft Excel calculation script. Proper absorbance wavelengths for calculations are selected for each compound manually based on absorbance maximums (absolute absorbance unit values for the minimum and maximum concentration points within 0 – 3 OD range). Each of the final datasets is additionally visually evaluated by the operator and goodness of fit (R2) is calculated for each calibration curve. The effective range of this assay is approximately 2-400 μM and the […]

Fusarium oxysporum = test: Antifungal activity, agar well diffusion method; format: cell-based; settings: for zone of inhibition at 3.9 µg/mL / zone of inhibition at […] / zone of inhibition at 15.6 µg/mL / zone of inhibition at 31.25 µg/mL / zone of inhibition at 62.5 µg/mL / zone of inhibition at 125 µg/mL / zone of inhibition at 250 µg/mL / zone of inhibition at 500 µg/mL / zone of inhibition at 1000 µg/mL: Fusarium oxysporum, zones st (static growth), read-out: Diameter of inhibition zone; for zone of inhibition at 3.9 µg/mL: 0.0039 mg/mL; for zone of inhibition at […]: 0.0078 mg/mL; for zone of inhibition at 15.6 µg/mL: 0.0156 mg/mL; for zone of inhibition at 31.25 µg/mL: 0.03125 mg/mL; for zone of inhibition at 62.5 µg/mL: 0.0625 mg/mL; for zone of inhibition at 125 µg/mL: 0.125 mg/mL; for zone of inhibition at 250 µg/mL: 0.25 mg/mL; for zone of inhibition at 500 µg/mL: 0.5 mg/mL; for zone of inhibition at 1000 µg/mL: 1 mg/mL, 40 µl per well, 25 °C, 72 h; for lowest inhibition concentration: agar well diffusion, tested 0.0039-1.0 mg/mL
Description: (§1) The agar well diffusion method is widely used to evaluate the antimicrobial activity of different substances (S. Magaldi, S. Mata-Essayag, C. Hartung de Capriles, et al. Well diffusion for antifungal susceptibility testing, Int. J. Infect. Dis. 8, 2004 , 39–45; C. Valgas, S. M. De Souza, E. F. A. Smânia, et al. Screening methods to determine antibacterial activity of natural products. Braz. J. Microbiol. 38 , 2007 , 369–380). Similarly to the procedure used in a disk-diffusion method, the agar plate surface is inoculated by spreading a volume of the microbial inoculum over the entire agar surface. Then, a hole with a diameter of 6 to 8 mm is punched aseptically with a sterile cork borer or a tip, and a volume […] of the antimicrobial agent or extract solution at desired concentration is introduced into the well. Then, agar plates are incubated under suitable conditions depending upon the test microorganism. The antimicrobial agent diffuses in the agar medium and inhibits the growth of the microbial strain tested (M. Balouiri, M. Sadiki, S. K. Ibnsouda. Methods for in vitro evaluating […]
(§2) Agar well diffusion method is a qualitative method used to measure the ability of compounds to inhibit microbial growth. This test is a quick and easy way to measure and compare levels of inhibitory […]
(§3) Antifungal activity of the synthetic compounds using agar well diffusion The compunds were tested towards plant pathogens Fusarium oxysporum Schltdl. and F. verticillioides (Sacc.) Nirenberg isolated from crops. Antifungal activity of the synthetic compounds was evaluated with using of an agar well diffusion method based on a disk diffusion assay for testing filamentous fungi (CLSI M51-A) [CLSI. Method for Antifungal Disk Diffusion Susceptibility Testing of Nondermatophyte Filamentous Fungi; Approved Guideline.CLSI document M51-A. Wayne, PA:
(§4) Clinical and Laboratory Standards Institute; 2010. This method is standardized for Altenaria , Aspergillus, Bipolaris , Fusarium , order Mucorales etc.
(§5) Preparation of synthetic compounds for mycological assay
(§6) Solutions of fungicides and its analogs were diluted in dimethyl sulfoxide (DMSO) to produce the […]
(§7) Antifungal well diffusion method
(§8) The fungal strains were cultured on potato dextrose agar slants (PDA, Eur. Pharm.) and incubated at 25 °C for 5 days. Sterile distilled water was used to cover and resuspend the colonies. Suspension of […]
(§9) conidia was adjusted to inoculums 5×10^6 conidia/mL. The suspension was further diluted in warm PDA 1:10 to obtain final working inoculums 5×10^5 conidia/mL.
(§10) Polypropylene cylinders (d, 5 mm) were placed on the surface and wells punched in the medium were used as reservoir of the test substances in different concentrations. 40 µl of solutions containing 0.0039-1.0 mg/mL of a test compound was added into the wells.
(§11) Each compound was tested in triplicate at different concentrations. Growth control was a well with 40 µl of DMSO, which was used for test components dilution.
(§12) Plates incubated at 25 °C for 72 h. The test compounds at known concentration into contact with an inoculated medium then exerts a growth-inhibiting effect then a clear zone (the zone of inhibition) appears around the test product. Diameter of a clear zone around the well is measured at the end of the incubation period in millimeters. If the fungal strain is susceptible to the antifungal agent, then a zone of inhibition appears on the agar plate. If it is resistant to the test compound, then no zone is evident.
(§13) The size of the zone of inhibition is usually related to the level of antifungal activity present in the […]
(§14) The growth rate of Fusarium oxysporum and F. verticillioides for each well was determined visually and compared with the growth of control.
(§15) As shown in the table the antifungal activity of the 6 compounds, - Fluxapyroxad, compound 28, compound 29, Boscalid, compound 30, compound 31, - were tested against plant pathogenic fungal […]
(§16) toward Fusarium oxysporum (Table S5, Figure S16). Inhibition zones of all compounds characterized […]

Fusarium verticillioides = test: Antifungal activity, agar well diffusion method; format: cell-based; settings: for zone of inhibition at 3.9 µg/mL / zone of inhibition at […] / zone of inhibition at 15.6 µg/mL / zone of inhibition at 31.25 µg/mL / zone of inhibition at 62.5 µg/mL / zone of inhibition at 125 µg/mL / zone of inhibition at 250 µg/mL / zone of inhibition at 500 µg/mL / zone of inhibition at 1000 µg/mL: Fusarium verticillioides, 0 = absence of antifungal activity, read-out: Diameter of inhibition zone; for zone of inhibition at 3.9 µg/mL: 0.0039 mg/mL; for zone of inhibition at […]: 0.0078 mg/mL; for zone of inhibition at 15.6 µg/mL: 0.0156 mg/mL; for zone of inhibition at 31.25 µg/mL: 0.03125 mg/mL; for zone of inhibition at 62.5 µg/mL: 0.0625 mg/mL; for zone of inhibition at 125 µg/mL: 0.125 mg/mL; for zone of inhibition at 250 µg/mL: 0.25 mg/mL; for zone of inhibition at 500 µg/mL: 0.5 mg/mL; for zone of inhibition at 1000 µg/mL: 1 mg/mL, 40 µl per well, 25 °C, 72 h
Description: as §1, §2, §3, §4, §5, §6, §7, §8, §9, §10, §11, §12, §13, §14, §15, §16

[2] = Table S1, incubation 1, read-out: PBS solubility, pH 7.4, Incubation 1
[3] = Table S1, incubation 2, read-out: PBS solubility, pH 7.4, Incubation 2
[4] = experimental kinetic solubility in phosphate-buffered saline at pH 7.4, Fig. 3, read-out: Solubility

solubility at 2 h [1, 2] [µM] | solubility at 2 h [1, 3] [µM] | solubility at 2 h [1, 4] [µM] | SMILES | zone of inhibition at 3.9 µg/mL (Fusarium oxysporum) [mm] | zone of inhibition at […] (Fusarium oxysporum) [mm] | zone of inhibition at 15.6 µg/mL (Fusarium oxysporum) [mm] | zone of inhibition at 31.25 µg/mL (Fusarium oxysporum) [mm] | zone of inhibition at 62.5 µg/mL (Fusarium oxysporum) [mm] | zone of inhibition at 125 µg/mL (Fusarium oxysporum) [mm] | zone of inhibition at 250 µg/mL (Fusarium oxysporum) [mm] | zone of inhibition at 500 µg/mL (Fusarium oxysporum) [mm] | zone of inhibition at 1000 µg/mL (Fusarium oxysporum) [mm] | lowest inhibition concentration (Fusarium oxysporum) [mg/mL] | zone of inhibition at 3.9 µg/mL (Fusarium verticillioides) [mm] | zone of inhibition at […] (Fusarium verticillioides) [mm] | zone of inhibition at 15.6 µg/mL (Fusarium verticillioides) [mm] | zone of inhibition at 31.25 µg/mL (Fusarium verticillioides) [mm] | zone of inhibition at 62.5 µg/mL (Fusarium verticillioides) [mm] | zone of inhibition at 125 µg/mL (Fusarium verticillioides) [mm] | zone of inhibition at 250 µg/mL (Fusarium verticillioides) [mm] | also measured
17 (≈ 5.9 µg/mL) | 18 (≈ 6.25 µg/mL) | 17 ± 0.3 (≈ 5.9 µg/mL) | O=C(N[C@@H]1[C@@H]2CC[C@@]1(c1ccc(Cl)cc1)C2)c1cccnc1Cl (relative stereo) [Compound 30] | 16 ± 1.2 | 19 ± 1.2 | 20 ± 1.5 | 25 ± 0.6 | 25 | 30 | 30 | 30 | 30 | < 0.0039 | 11 ± 1.2 | 19 ± 1.2 | 25 ± 0.6 | 30 ± 0.6 | 31 ± 1 | 36 ± 1.7 | 41 ± 1.2 | increase of solubility relative to boscalid ([1]; kinetic solubility, PBS pH 7.4): ~ 50%; solubility at 2 h ([1]; Table S1, mean of 2 incubations, 2 h, 2% DMSO, effective range approx. 2-400 μM, read-out: PBS solubility, pH 7.4, Mean): 17 µM (≈ 5.9 µg/mL); zone of inhibition at 500 µg/mL (Fusarium verticillioides): 46 ± 1.7 mm; zone of inhibition at 1000 µg/mL (Fusarium verticillioides): 49 ± 1.2 mm; lowest inhibition concentration (Fusarium verticillioides; agar well diffusion, tested 0.0039-1.0 mg/mL): < 0.0039 mg/mL
148 (≈ 51.7 µg/mL) | 157 (≈ 54.8 µg/mL) | 152 (≈ 53.1 µg/mL) | O=C(N[C@@H]1[C@H]2C[C@]1(c1ccc(Cl)cc1)CO2)c1cccnc1Cl (relative stereo) [Compound 31] | 8 ± 0.6 | 9 ± 0.6 | 14 ± 1 | 16 ± 1 | 18 ± 0.6 | 19 ± 1 | 18 ± 1 | 21 ± 1 | 25 ± 0.6 | 0.0039 | 0 | 0 | 0 | 0 | 0 | 10 ± 0.6 | 16 ± 1.2 | zone of inhibition at 500 µg/mL (Fusarium verticillioides): 23 ± 1.5 mm; zone of inhibition at 1000 µg/mL (Fusarium verticillioides): 29 ± 1.2 mm
